# Test system: patient diagnosed as having Down syndrome
# Settings: inhalation 1-3 hours per day for one month, hydrogen concentration 4% to 6%
# Source text: A patient diagnosed as having Down syndrome developed mild cognitive impairment and could not go out because of a depressive symptom. Additionally, their skin had wrinkles due to premature aging characteristic to Down syndrome.
structure (smiles),measurement,setting,value
"[HH] [hydrogen, molecular hydrogen]",ability to go out,,could go out
same,motivation to learn,,got motivated to learn
same,skin resilience (premature aging),,became resilient
same,skin wrinkles (premature aging),,became less noticeable
same,depressive symptom,200 ml/min (Jobs-α generator),improved

# From patent publication US20210275576A1, “MOLECULAR HYDROGEN-CONTAINING COMPOSITION FOR PREVENTION AND/OR IMPROVEMENT OF GENETIC DISORDER” (MiZ Company Limited, priority 2020, published 2021)
